# Data: PubChem BioAssay (NCI)
#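 A five-concentration, 48-hour dose response in 96-well plates underlies each endpoint, interpolated linearly between surrounding concentrations. TGI denotes the concentration required for complete inhibition of growth.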 Where a SMILES comes first, the peptide text is derived from it. [ ]: non-standard residue; d: D form. The star is where a group is joined. NMeAc5c = CNC1(C(=O)O)CCCC1; Boc = CC(C)(C)OC(=O)*; OBn = c1ccc(CO*)cc1
# Tested on: T-47D breast
# Experiment: inhibition of tumour cell growth, NCI panel, 48 h
row,SMILES,TGI [µM]
1,C=CC1(C)CCC2C(=CCC3C2(C)CC(O)C(O)C3(C)COC2OC(C(=O)O)C(O)C(O)C2O)C1 (stereo not drawn) (tested in a mixture with another compound),> 100
2,N#Cc1c(N2CCCC2)ncn(-c2ccccc2)c1=O,> 100
3,N#CC1(C#N)N[C@@H](c2ccsc2)[C@H]2C(=O)N(c3ccccc3)C(=O)[C@H]21,> 100
4,O=[N+]([O-])c1ccc2c(c1)/C(=N/N=C1c3ccccc3Cc3ccccc31)c1cc([N+](=O)[O-])cc([N+](=O)[O-])c1-2,3.49
5,CN(C(=O)C(Cc1ccccc1)NC(=O)OC(C)(C)C)C1(C(=O)NC(Cc2ccccc2)C(=O)OCc2ccccc2)CCCC1 (stereo not drawn) (Boc-Phe-[NMeAc5c]-Phe-OBn; configuration not given here),> 100
6,Cc1ccc([N+](=O)[O-])cc1NC1=NCCO1,> 100
7,O=c1ccc(-c2ccccc2)n[nH]1,> 100
8,CCOC(=O)C(SCCO)C(C(=O)OCC)n1cnc2c(=O)[nH]c(NC(C)=O)nc21 (stereo not drawn),> 100
9,C#CCNC(CS)C(=O)O (stereo not drawn),> 100
10,Cc1ccc(N=NC(=Nc2ccccc2)c2ccc(N(CCC#N)CCC#N)cc2)cc1,> 100
11,Cc1ccccc1C(=O)N1CCc2c([nH]c3ccccc23)C1,71.8
12,NC(=O)NCCCC(NC(=O)OCCCCn1ccc(=O)[nH]c1=O)C(=O)O (stereo not drawn),> 100
13,COc1ccc2c(c1)/C(=C/CCN(C)C)c1ccccc1S2,> 100
14,NS(=O)(=O)c1ccc2c(c1)OCCOCCOCCOCCO2,> 100
15,CCOC(=O)/C=C/CC(C)(C)CCOC(C)=O,> 10
16,COC(=O)C([C@H](NC1(c2ccccc2)c2ccccc2-c2ccccc21)C(=O)OC)N(NC(=O)OCc1ccccc1)C(=O)OCc1ccccc1 (mixture of isomers),> 100

# Tested on: COLO 205 colon
# Experiment: inhibition of tumour cell growth, NCI panel, 48 h
row,SMILES,TGI [µM]
1,COc1cc(C(=O)N(C(=S)OCc2ccccn2)c2ccccc2)cc(OC)c1OC,> 100
2,CCCCCCCCCCCCCCNC(=O)CCC(NC(=O)c1ccc(N(C)Cc2cnc3nc(N)nc(N)c3n2)cc1)C(=O)NCCCCCCCCCCCCCC (stereo not drawn),> 62.9
3,COc1ccc(N/N=C2\CCOc3ccc(C)cc3C2=O)cc1,> 100
4,NC(N)=N/N=C/c1c(-c2ccc(N)cc2)nc2sccn12,57.8
5,CCCCCCc1cc2cc(-c3csc(CC#N)n3)c(=O)oc2cc1O,> 100
6,COc1cc(Br)cc2cc(-c3cn4ccsc4n3)c(=O)oc12,> 100
7,Nn1c(-c2ccccc2)nn(C(=O)c2ccccc2)c1=O,> 100
8,O=c1[nH]c(Nc2cccc(CC(F)(F)F)c2)nc2nc[nH]c12,> 100
9,COc1ccc(C2CC(c3c(O)ccc4ccccc34)=NN2C(C)=O)cc1OC (stereo not drawn),42.8
10,COc1cc2c(c(OC)c1OC)C(=O)[C@@H]1[C@H]2N1C(N)=O,> 100
11,COc1ccc2cc(NC(=O)N/N=C\c3ccc([N+](=O)[O-])cc3)ccc2c1,> 100
12,C[C@@H]1CC[C@]2(C(=O)O)CC[C@]3(C)C(=CC[C@@H]4[C@@]5(C)CC[C@H](O)C(C)(C)[C@@H]5CC[C@]43C)[C@@H]2[C@]1(C)O,30
13,CN1CCc2cc(N)cc3c2C1Cc1ccc(O)c(O)c1-3 (stereo not drawn),> 100
14,O=C1CCCSC(=O)N1Cc1ccccc1,> 100
15,CCCN(C(=O)c1ccccc1)C(C#N)c1ccc(C(C#N)N(CCC)C(=O)c2ccccc2)cc1 (stereo not drawn),> 100
16,COC(=O)c1ccccc1CC1Cc2ccc3c(c2C1=O)CCCC3 (stereo not drawn),> 100
17,c1ccc(N=c2sc3ccccc3nc2Nc2ccccc2)cc1,> 100

row,SMILES,TGI [µM]
1,CCOC(=O)c1csc(NC(=O)CN2CCOCC2)n1,> 100
2,O=C1/C(=C/c2ccccc2)N=C2Sc3c(nc[nH]c3=O)N12,> 100
3,C=CC1(C)CCC2C(=CCC3C2(C)CC(O)C(O)C3(C)COC2OC(C(=O)O)C(O)C(O)C2O)C1 (stereo not drawn) (tested in a mixture with another compound),> 100
4,N#Cc1c(N2CCCC2)ncn(-c2ccccc2)c1=O,> 100
5,N#CC1(C#N)N[C@@H](c2ccsc2)[C@H]2C(=O)N(c3ccccc3)C(=O)[C@H]21,> 100
6,O=[N+]([O-])c1ccc2c(c1)/C(=N/N=C1c3ccccc3Cc3ccccc31)c1cc([N+](=O)[O-])cc([N+](=O)[O-])c1-2,9.9
7,CN(C(=O)C(Cc1ccccc1)NC(=O)OC(C)(C)C)C1(C(=O)NC(Cc2ccccc2)C(=O)OCc2ccccc2)CCCC1 (stereo not drawn) (Boc-Phe-[NMeAc5c]-Phe-OBn; configuration not given here),52.3
8,Cc1ccc([N+](=O)[O-])cc1NC1=NCCO1,> 100
9,CCOC(=O)C(SCCO)C(C(=O)OCC)n1cnc2c(=O)[nH]c(NC(C)=O)nc21 (stereo not drawn),> 100
10,C#CCNC(CS)C(=O)O (stereo not drawn),> 100
11,Cc1ccc(N=NC(=Nc2ccccc2)c2ccc(N(CCC#N)CCC#N)cc2)cc1,> 100
12,Cc1ccccc1C(=O)N1CCc2c([nH]c3ccccc23)C1,31.9
13,NC(=O)NCCCC(NC(=O)OCCCCn1ccc(=O)[nH]c1=O)C(=O)O (stereo not drawn),> 100
14,COc1ccc2c(c1)/C(=C/CCN(C)C)c1ccccc1S2,38
15,NS(=O)(=O)c1ccc2c(c1)OCCOCCOCCOCCO2,> 100
16,CCOC(=O)/C=C/CC(C)(C)CCOC(C)=O,> 10
17,COC(=O)C([C@H](NC1(c2ccccc2)c2ccccc2-c2ccccc21)C(=O)OC)N(NC(=O)OCc1ccccc1)C(=O)OCc1ccccc1 (mixture of isomers),> 100

# Tested on: SR leukemia
# Experiment: inhibition of tumour cell growth, NCI panel, 48 h
row,SMILES,TGI [µM]
1,COc1cc(C(=O)N(C(=S)OCc2ccccn2)c2ccccc2)cc(OC)c1OC,49
2,CCCCCCCCCCCCCCNC(=O)CCC(NC(=O)c1ccc(N(C)Cc2cnc3nc(N)nc(N)c3n2)cc1)C(=O)NCCCCCCCCCCCCCC (stereo not drawn),21.8
3,COc1ccc(N/N=C2\CCOc3ccc(C)cc3C2=O)cc1,> 100
